Four compounds from patent US20210121438A1, “METHODS FOR TREATING OR PREVENTING CONFORMATION DISEASES AND METHODS FOR DRUG SCREENING” (GARAGE BRAIN SCIENCE CO., LTD, priority 2018, published 2021) can be followed below.

Each structure is given as a SMILES string. Where a SMILES comes first, the peptide text is derived from it. The star is where a group is joined. Cbz = O=C(OCc1ccccc1)*

Common to all, as to format: cell-based
For data set [1], the system named is TDP-43-mediated CFTR exon 9 skipping. The experiment in a line: Alternative splicing assay (in vivo splicing, CFTR minigene). The settings on record: EGCG. Here is the method:
Alternative Splicing Assay: TDP-43-mediated CFTR exon 9 skipping assays were performed as previously described. Briefly, cells were cotransfected with TDP-43 plasmid, hCF-(TG)13(T)5 minigenes and the indicated plasmids, including VCP/p97 wt, VCP/p97 QQ, HSPB1, lamin A or progeria, or HSPB1 siRNA. Total RNA of transfectanted cells was isolated by TRIzol reagent (Invitrogen), and RT-PCR was carried out by Superscript III (Invitrogen) using specific primers to amplify exons 8-10 of CFTR according to the manufacturer's protocol. The relative amounts of cDNA were validated on 1.3% agarose gels. […]

In data set [2] the target is T1, TDP-43 polymers (Homo sapiens, UniProt Q13148).
T1 construct: endogenous in cells; host or cells: 293T
T1 sequence (Q13148 whole entry): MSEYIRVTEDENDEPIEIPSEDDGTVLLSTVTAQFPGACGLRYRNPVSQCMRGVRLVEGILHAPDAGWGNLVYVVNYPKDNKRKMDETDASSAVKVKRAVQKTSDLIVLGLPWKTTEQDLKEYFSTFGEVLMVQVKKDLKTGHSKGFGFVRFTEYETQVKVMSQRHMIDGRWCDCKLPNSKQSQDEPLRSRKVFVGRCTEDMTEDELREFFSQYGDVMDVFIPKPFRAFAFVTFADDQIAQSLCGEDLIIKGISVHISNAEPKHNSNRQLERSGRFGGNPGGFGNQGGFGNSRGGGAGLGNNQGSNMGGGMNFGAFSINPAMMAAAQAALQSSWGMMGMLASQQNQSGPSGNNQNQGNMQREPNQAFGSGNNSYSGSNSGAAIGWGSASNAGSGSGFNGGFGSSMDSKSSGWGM
The experiment in a line: Western blotting of TDP-43 polymers in nuclear, cytosolic and urea fractions. Conditions: EGCG-treated cells. Here is the method:
Solubility Assay of TDP-43 and p53: Cells with or without transfection of TDP-43-FL or TDP-43-Q303P were lysed with RIPA buffer (50 mM Tris, 150 mM NaCl, 1 mM EDTA, 1% NP-40, pH 7.4), and the lysate was further fractionated by centrifugation at 16,000 g for 5 min at 4° C. The insoluble pellets were then dissolved in 8 M urea/50 mM Tris (pH 8.0). The proteins were identified by Western blotting using a polyclonal TDP-43 antibody or a monoclonal p53 antibody.
TDP-43 proteinopathies in FTLD/ALS with the VCP/97 mutation R155H have been characterized. The VCP/97 mutation R155H alters the functions of VCP/97, redistributes TDP-43 to the cytosol, and leads to form-insoluble aggregates of TDP-43.
Background: Immunoblotting shows a protein as a band on a membrane.

Data set [3] concerns GFP-TDP-43-IIPLD inclusion-expressing 293T cells. The experiment in a line: TDP-43-IIPLD misfolded aggregates in transfected 293T cells (microscopy). As for the experimental part:
Cell Culture and Drug Treatment: 293T cells were used throughout the experimental studies. 293T cells were grown in Dulbecco's modified Eagle's medium (DMEM)/F12, which was supplemented with 10% fetal bovine serum, 1% penicillin/streptomycin and 1% L-glutamate. Primary cultures of rat hippocampal neurons were prepared from embryonic day 17 rat embryos as previously described by (Wang et al, TDP-43, the signature protein of FTLD-U, is a neuronal activity-responsive factor. J. Neurochem. 105, 79T-806 (2008)). All procedures for handling the rat were carried out in accordance with the guidelines approved by the Institutional Animal Care and Utilization Committee, Academia Sinica. Hippocampal cells were plated on poly-1-lysine-coated coverslides at low density (10,000 cells per cm2) and cultured in the neurobasal medium/B27 (Invitrogen). The 293T cells were transfected using the calcium phosphate protocol according to the manufacturer's instructions and as previously described by Wang et al. (Wang et al., ProcNatlAcadSci USA. 99, 13583-13588 (2002). All of the plasmid constructs were described in Wang et al., Nature Communication, 2012). 293T cells (1×10^5) were seeded in each well of a six-well plate and incubated overnight in a 37° C. incubator with 5% CO2. To determine the effects of off-pathway stabilizers on the reduction of pathological-like aggregates, the cells were treated with baicalein and EGCG for 12, 24, or 48 h with the indicated concentrations (25 or 50 μM).
GFP-TDP-43 pathological-like (GFP-TDP-43-IIPLD) inclusion-expressing 293T cells were treated with or without 50 μM baicalein for 12 h following microscopic analysis and Western blotting validation. […] (FIG. 2c).

Data set [4] relates to four p53 strains. The data set is described as follows: Cell viability of the four p53 strains under stress (MTT assay). An excerpt: Our clonally expanded system provided an excellent cellular model to precisely investigate the oncogenicity of strain-specific p53 amyloid conformations in vivo. We analyzed cell growth of the four p53 amyloid strains by examining cell cycle flow and counting doubling time (FIGS. 17a and 17b). […] In contrast to the toxic amyloids observed in neurodegenerative contexts, p53 amyloids appear to promote cell growth. Additionally, to assess the stress response, the four cell strains were challenged with spermidine and H2O2 (FIGS. 17c and 17d). Cell viability was impaired under all stress conditions. […] To further identify key pathophysiology pathways involved in tumorigenesis of p53 aggregates' gain-of-function, we performed a serial screen by western blotting and compared the expression of cancer-related proteins in the four strains. […] Additionally, a group of epigenetic regulators altered their expression in present of p53 aggregates. […] Together with the horizontal transmissibility shown in FIG. 16, the three endogenous p53 aggregates were able to switch into malignant cancer cells including activating EMT, increasing cancer stemness, and dramatically altering epigenetic regulators, and the strain-specific p53 amyloids can propagate oncogenic inheritance via a protein-based mechanism.

Data set [5] deals with p53 aggregates in 293T cells. The experiment in a line: p53 aggregates in 293T cells / p53 strains (immunofluorescence with p53 antibody). As for the experimental part:
Immunohistochemistry: Fluorescence staining was performed as described previously (Wang et al., 2012). Cells were transfected with or without plasmids or siRNAs and grown for 24 to 48 hr. Cells were fixed with 3.7% paraformaldehyde in PBS at RT for 15 min and then permeabilized with 0.1% Triton X-100. The fixed cells were incubated with primary antibodies at RT for 2 hr followed by incubation with Cy2- or Cy3-labeled secondary antibodies (Molecular Probes). Slides were mounted using Vectashield DAPI H-1200 (Vector). Cellular fluorescence images were collected using an LSM710 META laser-scanning confocal microscope (Zeiss).
We observed a striking degree of heterogeneity among p53 aggregates in the cytosol of 293T cells by immunofluorescence with a p53 antibody, including long fibers (5-10 μm), short fibers (1.6-3.2 μm) and punctate aggregates (0.5-1 μm in diameter) (FIG. 16a, arrows). The length of the p53 fibers and p53 aggregates were analyzed (FIG. 16b). […] To determine whether these heterogeneous p53 amyloid patterns are inherited or are random conversions, we subcultured and isolated single colonies from heterogeneous pools of cells. […] We obtained four phenotypes shown in FIG. 16a, including long and short fibers, puncta, and diffuse nuclear staining, and these phenotypes were stably propagated (FIG. 16e). We termed these p53 phenotypes of the isolated strains as follows: p53 [L] (Long fibers), p53 [S] (Short fibers), p53 [P] (Puncta) and p53-NVA (No Visible Aggregates).
Additionally, we treated 293T cells with an Aβ amyloid disassembling agent, baicalein, following immunofluorescence staining with anti-p53 antibodies.

With `O=C(O[C@@H]1Cc2c(O)cc(O)cc2O[C@@H]1c1cc(O)c(O)c(O)c1)c1cc(O)c(O)c(O)c1` [EGCG], the “correction of TDP-43 dysfunction on mRNA processing” value in data set [1] is listed as “insufficient to correct TDP-43 dysfunction on mRNA processing”. In data set [2], the TDP-43 species result was “increased the level of the 130 kD TDP-43 instead of the high-order TDP-43 polymers”. The “TDP-43-IIPLD aggregates, statistical analysis of dose dependence” value in data set [3] is on record as “disassembled the formed TDP-43 misfolded aggregates in a dose-dependent manner”. Also, the “assembly of TDP-43-IIPLD proteinaceous nucleating particles” value in data set [3] (50 μM) was “reduce TDP-43 proteinaceous nucleating particles”.

With `OO` [H2O2], in data set [4] (four p53 strains challenged with H2O2), the cell viability result was “impaired”. In data set [5] (H2O2 treatment), the p53 aggregate formation entry is “induced p53 aggregate formation”.

Turning to `CC(C)C[C@@H](C=O)NC(=O)[C@H](CC(C)C)NC(=O)[C@H](CC(C)C)NC(=O)OCc1ccccc1` [MG132] (Cbz-Leu-Leu-Leu-aldehyde), in data set [5] (293T cells, MG132), the “form of p53 fibers” value is reported as “converted the three types of p53 fibers into irregular inclusions” and the p53 aggregates entry was “significantly increased p53 aggregates”.

For the compound `NCCCCNCCCN` [spermidine], the cell viability result in data set [4] (four p53 strains challenged with spermidine) is “impaired”.
